Test system: 883617-216-R-J1-PDC tumor spheroids, viability
Test: Anticancer human tumor 883617-216-R-J1-PDC patient-derived bladder carcinoma cell line growth inhibition [PI3K]
Conditions: spheroids with HUVEC and MSC; for IC50: curve of first compound; for viability, T/C: stronger effect = lower value
Outline: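 Targeted small molecules plus PI3K inhibitors, half-log dose series from Cmax (default top 10 microM), were applied to heterotypic spheroids of cancer cells with HUVEC and MSCs. Viability indicated growth inhibition.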

[1] = second compound 0.0316 µM, first compound 0.000316 µM
[2] = second compound 0.0316 µM, first compound 0.001 µM
[3] = second compound 0.0316 µM, first compound 0.00316 µM
[4] = second compound 0.0316 µM, first compound 0.01 µM
[5] = second compound 0.0316 µM, first compound 0.0316 µM
[6] = second compound 0.0316 µM, first compound 0.1 µM
[7] = second compound 0.1 µM, first compound 0.000316 µM
[8] = second compound 0.1 µM, first compound 0.001 µM
[9] = second compound 0.1 µM, first compound 0.00316 µM
[10] = second compound 0.1 µM, first compound 0.01 µM
[11] = second compound 0.1 µM, first compound 0.0316 µM
[12] = second compound 0.1 µM, first compound 0.1 µM
[13] = second compound 0.316 µM, first compound 0.000316 µM
[14] = second compound 0.316 µM, first compound 0.001 µM
[15] = second compound 0.316 µM, first compound 0.00316 µM
[16] = second compound 0.316 µM, first compound 0.01 µM
[17] = second compound 0.316 µM, first compound 0.0316 µM
[18] = second compound 0.316 µM, first compound 0.1 µM
[19] = second compound 1 µM, first compound 0.000316 µM
[20] = second compound 1 µM, first compound 0.001 µM
[21] = second compound 1 µM, first compound 0.00316 µM
[22] = second compound 1 µM, first compound 0.01 µM
[23] = second compound 1 µM, first compound 0.0316 µM
[24] = second compound 1 µM, first compound 0.1 µM
[25] = second compound 3.16 µM, first compound 0.000316 µM
[26] = second compound 3.16 µM, first compound 0.001 µM
[27] = second compound 3.16 µM, first compound 0.00316 µM
[28] = second compound 3.16 µM, first compound 0.01 µM
[29] = second compound 3.16 µM, first compound 0.0316 µM
[30] = second compound 3.16 µM, first compound 0.1 µM
[31] = second compound 10 µM, first compound 0.000316 µM
[32] = second compound 10 µM, first compound 0.001 µM
[33] = second compound 10 µM, first compound 0.00316 µM
[34] = second compound 10 µM, first compound 0.01 µM
[35] = second compound 10 µM, first compound 0.0316 µM
[36] = second compound 10 µM, first compound 0.1 µM
[37] = second compound 0.0316 µM, first compound 0.316 µM
[38] = second compound 0.0316 µM, first compound 1 µM
[39] = second compound 0.0316 µM, first compound 3.16 µM
[40] = second compound 0.0316 µM, first compound 10 µM
[41] = second compound 0.1 µM, first compound 0.316 µM
[42] = second compound 0.1 µM, first compound 1 µM
[43] = second compound 0.1 µM, first compound 3.16 µM
[44] = second compound 0.1 µM, first compound 10 µM
[45] = second compound 0.316 µM, first compound 0.316 µM
[46] = second compound 0.316 µM, first compound 1 µM
[47] = second compound 0.316 µM, first compound 3.16 µM
[48] = second compound 0.316 µM, first compound 10 µM
[49] = second compound 1 µM, first compound 0.316 µM
[50] = second compound 1 µM, first compound 1 µM
[51] = second compound 1 µM, first compound 3.16 µM
[52] = second compound 1 µM, first compound 10 µM
[53] = second compound 3.16 µM, first compound 0.316 µM
[54] = second compound 3.16 µM, first compound 1 µM
[55] = second compound 3.16 µM, first compound 3.16 µM
[56] = second compound 3.16 µM, first compound 10 µM
[57] = second compound 10 µM, first compound 0.316 µM
[58] = second compound 10 µM, first compound 1 µM
[59] = second compound 10 µM, first compound 3.16 µM
[60] = second compound 10 µM, first compound 10 µM
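Further: spheroids exposed to agents for 7 days before the viability read.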

Compound: CC(=O)c1c(C)c2cnc(Nc3ccc(N4CCNCC4)cn3)nc2n(C2CCCC2)c1=O + CC(Nc1ncnc2nc[nH]c12)c1cc2cccc(Cl)c2c(=O)n1-c1ccccc1
- IC50 (second compound 0.0316 µM): 86 nM
- IC50 (second compound 0.1 µM): 79.9 nM
- IC50 (second compound 0.316 µM): 76.2 nM
- IC50 (second compound 1 µM): 46.7 nM
- IC50 (second compound 3.16 µM): 23 nM
- IC50 (second compound 10 µM): < 0.316 nM
- viability, T/C [1]: 92.9%
- viability, T/C [2]: 94.6%
- viability, T/C [3]: 87.7%
- viability, T/C [4]: 86.6%
- viability, T/C [5]: 79.6%
- viability, T/C [6]: 45.2%
- viability, T/C [7]: 96%
- viability, T/C [8]: 107%
- viability, T/C [9]: 76.3%
- viability, T/C [10]: 79.8%
- viability, T/C [11]: 86.3%
- viability, T/C [12]: 40.8%
- viability, T/C [13]: 100%
- viability, T/C [14]: 95.3%
- viability, T/C [15]: 87.1%
- viability, T/C [16]: 84.3%
- viability, T/C [17]: 58.8%
- viability, T/C [18]: 47.3%
- viability, T/C [19]: 98%
- viability, T/C [20]: 78.3%
- viability, T/C [21]: 80.3%
- viability, T/C [22]: 71.3%
- viability, T/C [23]: 58.6%
- viability, T/C [24]: 36.4%
- viability, T/C [25]: 76%
- viability, T/C [26]: 61.3%
- viability, T/C [27]: 68.8%
- viability, T/C [28]: 58.6%
- viability, T/C [29]: 44.1%
- viability, T/C [30]: 38.1%
- viability, T/C [31]: 52.7%
- viability, T/C [32]: 39.4%
- viability, T/C [33]: 41.4%
- viability, T/C [34]: 46.4%
- viability, T/C [35]: 31.9%
- viability, T/C [36]: 23.9%

Compound: CC(C)n1nc(-c2ccc3oc(N)nc3c2)c2c(N)ncnc21 + CC(Nc1ncnc2nc[nH]c12)c1cc2cccc(Cl)c2c(=O)n1-c1ccccc1
- IC50 (second compound 0.0316 µM): 32.1 nM
- IC50 (second compound 0.1 µM): 34.2 nM
- IC50 (second compound 0.316 µM): 30 nM
- IC50 (second compound 1 µM): 21.3 nM
- IC50 (second compound 3.16 µM): 13.5 nM
- IC50 (second compound 10 µM): 0.321 nM
- viability, T/C [1]: 91%
- viability, T/C [2]: 75.2%
- viability, T/C [3]: 76.8%
- viability, T/C [4]: 82%
- viability, T/C [5]: 50.4%
- viability, T/C [6]: 18.4%
- viability, T/C [7]: 95.3%
- viability, T/C [8]: 93%
- viability, T/C [9]: 87.6%
- viability, T/C [10]: 69.7%
- viability, T/C [11]: 54.5%
- viability, T/C [12]: 17.4%
- viability, T/C [13]: 87.4%
- viability, T/C [14]: 92.5%
- viability, T/C [15]: 81.7%
- viability, T/C [16]: 72.8%
- viability, T/C [17]: 49%
- viability, T/C [18]: 19.9%
- viability, T/C [19]: 91.2%
- viability, T/C [20]: 77.1%
- viability, T/C [21]: 80.2%
- viability, T/C [22]: 68.3%
- viability, T/C [23]: 40.2%
- viability, T/C [24]: 19.6%
- viability, T/C [25]: 83.6%
- viability, T/C [26]: 58.9%
- viability, T/C [27]: 63.2%
- viability, T/C [28]: 60.6%
- viability, T/C [29]: 38.1%
- viability, T/C [30]: 17.7%
- viability, T/C [31]: 48.3%
- viability, T/C [32]: 50.7%
- viability, T/C [33]: 45.8%
- viability, T/C [34]: 36.3%
- viability, T/C [35]: 26.8%
- viability, T/C [36]: 13%

Compound: CCCS(=O)(=O)Nc1ccc(F)c(C(=O)c2c[nH]c3ncc(-c4ccc(Cl)cc4)cc23)c1F + CC(Nc1ncnc2nc[nH]c12)c1cc2cccc(Cl)c2c(=O)n1-c1ccccc1
- IC50 (second compound 0.0316 µM): 4210 nM
- IC50 (second compound 0.1 µM): 4650 nM
- IC50 (second compound 0.316 µM): 4540 nM
- IC50 (second compound 1 µM): 3910 nM
- IC50 (second compound 3.16 µM): 3620 nM
- IC50 (second compound 10 µM): 1700 nM
- viability, T/C [5]: 94.8%
- viability, T/C [6]: 92.3%
- viability, T/C [37]: 97.1%
- viability, T/C [38]: 102%
- viability, T/C [39]: 63.4%
- viability, T/C [40]: 9.37%
- viability, T/C [11]: 85%
- viability, T/C [12]: 91.8%
- viability, T/C [41]: 114%
- viability, T/C [42]: 85.1%
- viability, T/C [43]: 70.5%
- viability, T/C [44]: 10.7%
- viability, T/C [17]: 91.8%
- viability, T/C [18]: 91.1%
- viability, T/C [45]: 95%
- viability, T/C [46]: 97.1%
- viability, T/C [47]: 67.7%
- viability, T/C [48]: 11.3%
- viability, T/C [23]: 99.9%
- viability, T/C [24]: 89%
- viability, T/C [49]: 87.9%
- viability, T/C [50]: 72.4%
- viability, T/C [51]: 65.1%
- viability, T/C [52]: 9.68%
- viability, T/C [29]: 75.3%
- viability, T/C [30]: 75.7%
- viability, T/C [53]: 72.1%
- viability, T/C [54]: 71.5%
- viability, T/C [55]: 55.2%
- viability, T/C [56]: 10.6%
- viability, T/C [35]: 52.9%
- viability, T/C [36]: 57.4%
- viability, T/C [57]: 55.3%
- viability, T/C [58]: 66.5%
- viability, T/C [59]: 40.5%
- viability, T/C [60]: 11.8%

Compound: CNC(=O)c1ccc(N2C(=S)N(c3ccc(C#N)c(C(F)(F)F)c3)C(=O)C2(C)C)cc1F + CC(Nc1ncnc2nc[nH]c12)c1cc2cccc(Cl)c2c(=O)n1-c1ccccc1
- IC50 (second compound 0.0316 µM): > 10000 nM
- IC50 (second compound 0.1 µM): > 10000 nM
- IC50 (second compound 0.316 µM): > 10000 nM
- IC50 (second compound 1 µM): > 10000 nM
- IC50 (second compound 3.16 µM): > 10000 nM
- IC50 (second compound 10 µM): 3250 nM
- viability, T/C [5]: 91.8%
- viability, T/C [6]: 94.3%
- viability, T/C [37]: 92.8%
- viability, T/C [38]: 96.2%
- viability, T/C [39]: 83.9%
- viability, T/C [40]: 89%
- viability, T/C [11]: 89.4%
- viability, T/C [12]: 93.2%
- viability, T/C [41]: 90.2%
- viability, T/C [42]: 103%
- viability, T/C [43]: 89.8%
- viability, T/C [44]: 67%
- viability, T/C [17]: 88.1%
- viability, T/C [18]: 98.9%
- viability, T/C [45]: 84.9%
- viability, T/C [46]: 88.6%
- viability, T/C [47]: 82.7%
- viability, T/C [48]: 70.2%
- viability, T/C [23]: 84.5%
- viability, T/C [24]: 90.8%
- viability, T/C [49]: 83%
- viability, T/C [50]: 89.8%
- viability, T/C [51]: 73.3%
- viability, T/C [52]: 79.7%
- viability, T/C [29]: 70.6%
- viability, T/C [30]: 78.5%
- viability, T/C [53]: 72.7%
- viability, T/C [54]: 76.4%
- viability, T/C [55]: 69.2%
- viability, T/C [56]: 55.6%
- viability, T/C [35]: 50.8%
- viability, T/C [36]: 53.1%
- viability, T/C [57]: 50.5%
- viability, T/C [58]: 47.4%
- viability, T/C [59]: 50.6%
- viability, T/C [60]: 38.9%
